Measured values as given in patent US6403765B1, “Truncated Apaf-1 and methods of use thereof” (Thomas Jefferson University, priority 1998, dated 2002).
“Also recorded” adds a separate entry of the source. Each block holds one molecule with its values, some of them ahead of it.

How the values were obtained:
[1] = test system: procaspase-7; test: Cytochrome c/dATP-dependent processing of procaspase-7 in 293 cellular S100 extract; assay type: biochemical; settings: 35S-labeled procaspase-7, 293 S100 extract, FIG. 8
Description: (§1) In FIG. 8, ^35S-labeled procaspase-3, -6 or -7 were incubated with S100 extracts from 293 cells in the presence or absence of cytochrome c/dATP or DEVD-CHO, or both and analyzed by SDS-PAGE followed by autoradiography. However, when DEVD-CHO was included, processing of procaspase-6 (lane 6), but not procaspase-3 (lane 3) or -7 (lane 9) was inhibited. […] Also, since caspase-7 cannot process procaspase-6 (Srinivasula et al., J. Biol. Chem. 271:27099-27106, 1996), caspase-3 is the one responsible for processing of procaspase-6 in the cytochrome c plus dATP-dependent pathway.

[2] = test system: procaspase-9; test: Cytochrome c/dATP-dependent processing of procaspase-9 in 293 cellular S100 extract; assay type: biochemical; settings: 293 S100 extract, cytochrome c plus dATP
Description: To study processing of procaspase-9 in the cytochrome c/Apaf-1-dependent pathway, WT and the Asp to Ala mutants of procaspase-9 were incubated with a cellular S100 extract in the presence or absence of cytochrome c and dATP. […] Samples were then analyzed by SDS-PAGE and autoradiography.
(§2) To confirm this, a time course analysis of procaspase-9 and procaspase-3 processing was performed in cellular S100 extracts from 293 and MCF-7 cells. […] At the indicated times the reactions were stopped and then analyzed by SDS-PAGE and autoradiography (procaspase-9 panels) or Western blot analysis using anti-caspase-3 p20 polyclonal antibody (procaspase-3 panels). Small arrows indicate a non-specific band detected by the anti-caspase-3 antibody.
(§3) In FIG. 18, 293 cellular S100 extracts supplemented with ^35S-labeled procaspase-9 (upper panel) or procaspase-3 (lower panel) were incubated with (lanes 3-7) or without (lane 2) cytochrome c plus dATP in the presence of increasing amounts of purified recombinant procaspase-9-C287A mutant for 1 hour at 30° C. and then analyzed by SDS-PAGE and autoradiography. […] Consequently, the Apaf-1/caspase-9 pathway appears to be a central apoptotic pathway, on which most apoptotic signals converge.

[3] = test system: procaspase-6; test: Cytochrome c/dATP-dependent processing of procaspase-6 in 293 cellular S100 extract; assay type: biochemical; settings: 35S-labeled procaspase-6, 293 S100 extract, FIG. 8
Description: as §1

[4] = test system: procaspase-3; test: Cytochrome c/dATP-dependent processing of procaspase-3 in 293 cellular S100 extract; assay type: biochemical; settings: cytochrome c/dATP
Description: as §2, §1, §3

[5] = target: T1, T7-tagged Apaf-530 (human, UniProt O14727 1-541); test: co-immunoprecipitation from co-transfected 293 cells: anti-Flag IP, anti-T7 immunoblot
T1 construct: Expressed in co-transfected 293 cells; also called T7-Apaf-530
T1 sequence: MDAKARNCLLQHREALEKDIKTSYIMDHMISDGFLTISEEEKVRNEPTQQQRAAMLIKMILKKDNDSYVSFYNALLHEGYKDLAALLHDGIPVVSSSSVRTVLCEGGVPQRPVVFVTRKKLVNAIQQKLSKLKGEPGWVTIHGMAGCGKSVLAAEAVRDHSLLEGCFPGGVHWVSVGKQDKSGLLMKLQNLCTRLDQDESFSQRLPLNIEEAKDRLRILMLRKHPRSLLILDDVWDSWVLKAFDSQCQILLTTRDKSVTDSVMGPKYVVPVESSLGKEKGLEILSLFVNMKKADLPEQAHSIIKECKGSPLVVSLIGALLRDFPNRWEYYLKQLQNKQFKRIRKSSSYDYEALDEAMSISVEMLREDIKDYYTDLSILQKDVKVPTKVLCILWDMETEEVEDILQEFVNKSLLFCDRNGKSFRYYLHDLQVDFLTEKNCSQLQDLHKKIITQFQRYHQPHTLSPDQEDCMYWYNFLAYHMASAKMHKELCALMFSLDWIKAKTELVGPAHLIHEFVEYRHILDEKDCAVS
Description: (§4) The immunoprecipitates were analyzed by Western blotting with an anti-T7 antibody.
(§5) After 36 hours, extracts were prepared and immunoprecipitated with a monoclonal antibody to the Flag epitope. The immunoprecipitates (upper panel) were analyzed by SDS-PAGE and immunoblotted with a horseradish peroxides-conjugated T7 antibody.
(§6) In vivo interaction experiments between Apaf-1 variants and Bcl-x_L were performed. […] After 36 hours, extracts were prepared and immunoprecipitated with a monoclonal antibody to the Flag epitope. The immunoprecipitates (FIG. 16, upper panel) were analyzed by SDS-PAGE and immunoblotted with a horseradish peroxidase-conjugated T7 antibody.

[6] = target: T2, T7-tagged Bcl-xL (UniProt Q07817 1-233); test: as above
T2 construct: Expressed in co-transfected 293 cells
T2 sequence (Q07817 whole entry): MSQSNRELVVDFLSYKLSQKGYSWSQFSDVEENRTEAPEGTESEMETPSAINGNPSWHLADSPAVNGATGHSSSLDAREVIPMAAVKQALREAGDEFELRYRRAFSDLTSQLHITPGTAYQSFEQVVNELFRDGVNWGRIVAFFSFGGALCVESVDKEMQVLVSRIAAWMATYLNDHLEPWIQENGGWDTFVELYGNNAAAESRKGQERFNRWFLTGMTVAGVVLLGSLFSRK
Description: as §4, §5, §6

[7] = target: T3, Apaf-1 (endogenous, in 293 cellular S100 extract, with cytochrome c plus dATP)
T3 chain: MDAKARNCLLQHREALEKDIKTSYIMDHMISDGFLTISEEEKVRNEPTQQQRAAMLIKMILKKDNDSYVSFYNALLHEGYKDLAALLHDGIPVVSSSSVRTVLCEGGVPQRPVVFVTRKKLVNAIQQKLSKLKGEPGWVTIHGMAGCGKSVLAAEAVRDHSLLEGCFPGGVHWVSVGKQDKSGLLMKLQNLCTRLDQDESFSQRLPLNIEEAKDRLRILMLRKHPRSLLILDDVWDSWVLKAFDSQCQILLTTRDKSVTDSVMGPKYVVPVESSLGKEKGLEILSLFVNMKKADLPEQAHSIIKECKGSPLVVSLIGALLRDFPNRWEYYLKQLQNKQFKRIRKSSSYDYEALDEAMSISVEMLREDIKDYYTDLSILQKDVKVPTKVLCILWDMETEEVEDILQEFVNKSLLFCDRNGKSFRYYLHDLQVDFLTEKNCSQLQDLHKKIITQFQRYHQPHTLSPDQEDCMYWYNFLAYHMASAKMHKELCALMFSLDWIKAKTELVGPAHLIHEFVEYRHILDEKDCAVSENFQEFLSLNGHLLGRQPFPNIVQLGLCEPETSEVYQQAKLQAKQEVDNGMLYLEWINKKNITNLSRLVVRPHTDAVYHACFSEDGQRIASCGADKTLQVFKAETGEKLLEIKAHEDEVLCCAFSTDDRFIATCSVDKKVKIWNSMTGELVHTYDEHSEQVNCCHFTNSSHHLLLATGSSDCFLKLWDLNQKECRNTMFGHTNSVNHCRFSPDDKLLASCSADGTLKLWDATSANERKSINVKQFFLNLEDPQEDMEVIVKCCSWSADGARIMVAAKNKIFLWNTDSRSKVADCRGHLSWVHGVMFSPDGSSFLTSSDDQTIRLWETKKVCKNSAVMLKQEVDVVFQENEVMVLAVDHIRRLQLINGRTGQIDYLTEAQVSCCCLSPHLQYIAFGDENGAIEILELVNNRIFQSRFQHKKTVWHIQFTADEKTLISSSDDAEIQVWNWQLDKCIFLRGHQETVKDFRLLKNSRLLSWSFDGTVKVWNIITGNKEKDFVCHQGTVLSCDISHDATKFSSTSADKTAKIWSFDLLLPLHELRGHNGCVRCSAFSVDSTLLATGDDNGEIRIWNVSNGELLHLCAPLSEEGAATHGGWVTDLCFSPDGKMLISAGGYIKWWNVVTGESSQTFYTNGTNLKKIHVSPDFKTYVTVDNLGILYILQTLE

[8] = target: T4, recombinant Apaf-530 (Ni2+-affinity purified, bacterially expressed, C-terminal His6 tag)
T4 chain: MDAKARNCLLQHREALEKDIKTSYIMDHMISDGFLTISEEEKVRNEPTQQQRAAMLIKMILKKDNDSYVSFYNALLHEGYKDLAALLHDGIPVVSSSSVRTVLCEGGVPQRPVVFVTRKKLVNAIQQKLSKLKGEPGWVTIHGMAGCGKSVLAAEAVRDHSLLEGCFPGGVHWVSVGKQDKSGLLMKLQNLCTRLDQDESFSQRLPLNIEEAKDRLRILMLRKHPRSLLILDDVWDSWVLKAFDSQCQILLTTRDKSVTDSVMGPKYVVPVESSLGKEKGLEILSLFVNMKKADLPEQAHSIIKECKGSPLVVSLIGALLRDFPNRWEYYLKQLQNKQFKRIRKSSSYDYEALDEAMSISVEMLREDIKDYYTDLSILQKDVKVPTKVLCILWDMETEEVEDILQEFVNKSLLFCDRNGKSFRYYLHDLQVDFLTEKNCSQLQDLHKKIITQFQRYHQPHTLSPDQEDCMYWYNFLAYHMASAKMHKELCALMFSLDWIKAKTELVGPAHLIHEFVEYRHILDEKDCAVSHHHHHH

[9] = 293 S100 extract, Western blot, FIG. 5

- inhibition of processing of procaspase-7 [1]: not
- inhibition of procaspase-9 processing at Asp315 (autocatalytic generation of p35 fragment) [2]: not and did not block
- inhibition of processing of procaspase-6 [3]: inhibited
- inhibition of processing of procaspase-3 ([4]; 35S-labeled procaspase-3, 293 S100 extract, FIG. 8): not
- effect on processing of procaspase-3 [4, 9]: slightly attenuated
- inhibition of autoconversion of caspase-3-p20 to p19 [4, 9]: blocked
Molecule: Asp-Glu-Val-Asp-aldehyde [DEVD-CHO]
- inhibition of procaspase-9 processing at Asp330 (generation of p37 fragment) [2]: sensitive to inhibition; also recorded: blocked

- binding result [5]: no binding
- binding result [6]: no binding
B1: Flag-tagged Apaf-97 (other, not shown: small tags and cut ends)
chain: MDAKARNCLLQHREALEKDIKTSYIMDHMISDGFLTISEEEKVRNEPTQQQRAAMLIKMILKKDNDSYVSFYNALLHEGYKDLAALLHDGIPVVSSS
notes: Expressed in co-transfected 293 cells; also called Flag-Apaf-97

B2: purified recombinant procaspase-9-C287A mutant (protein)
chain: MDEADRRLLRRCRLRLVEELQVDQLWDALLSRELFRPHMIEDIQRAGSGSRRDQARQLIIDLETRGSQALPLFISCLEDTGQDMLASFLRTNRQAAKLSKPTLENLTPVVLRPEIRKPEVLRPETPRPVDIGSGGFGDVGALESLRGNADLAYILSMEPCGHCLIINNVNFCRESGLRTRTGSNIDCEKLRRRFSSLHFMVEVKGDLTAKKMVLALLELAQQDHGALDCCVVVILSHGCQASHLQFPGAVYGTDGCPVSVEKIVNIFNGTSCPSLGGKPKLFFIQAAGGEQKDHGFEVASTSPEDESPGSNPEPDATPFQEGLRTFDQLDAISSLPTPSDIFVSYSTFPGFVSWRDPKSGSWYVETLDDIFEQWAHSEDLQSLLLRVANAVSVKGIYKQMPGCFNFLRKKLFFKTS
- cytochrome c/dATP-induced activation of procaspase-9 and procaspase-3 in the 293 S100 extract [7]: able to attenuate cytochrome c/dATP-induced activation of procaspase-9 and procaspase-3 in the 293 S100 extract in a dose-dependent manner
- Apaf-530-induced activation of procaspase-9 in the in vitro reconstituted system [8]: A similar result was also obtained with the Apaf-530-induced activation of procaspase-9 in the in vitro reconstituted system (data not shown)
